Measurements taken from patent publication US11738007B2, “Treatment of glaucoma using endothelin receptor antagonists” (Perfuse Therapeutics, Inc., priority 2019, dated 2023).

Test system: oxygen-induced ischemic retinopathy
Experiment: Mouse oxygen-induced ischemic retinopathy (OIR) model
Assay type: in vivo, mice
Settings: IVT 1 μL of 2 μg/μL, single dose; 24, 48, 96 hours
Protocol: A relevant mice model was used to obtain the retinal hypoxia area in mice with oxygen-induced ischemic retinopathy (OIR) at different time points, as shown in FIG. 4. […] Briefly, at P17, mice with OIR (n=60) were given an injection of ET-1 antagonist (1 μL of 2 μg/μL Edonentan formulation, single dose) in one eye and PBS in the fellow eye. At 24, 48, and 96 hours after injection, mice (n=10 for each time point) were euthanized and the retinas were dissected and stained with GSA lectin and hypoxyprobe. The area of NV, area of retinal hypoxia, and the area of retinal nonperfusion were determined for each retina.

## Cc1onc(NS(=O)(=O)c2ccccc2-c2ccc(-c3ncco3)cc2CN(C)C(=O)CC(C)(C)C)c1C [Edonentan, N-[[2′-[[(4,5-dimethyl-3-isoxazolyl)amino]sulfonyl]-4-(2-oxazolyl)[1,1′-biphenyl]-2-yl]methyl]-N,3,3-trimethylbutanamide]
  Retinal hypoxia area: improvement
